The text below walks through data of patent publication US6610698B2, “Substituted pyrimidine compounds and methods of use” (Amgen, Inc., priority 1996, dated 2003).

Where a name gives a salt, the structure may show the parent alone.

The subject of the first assay is TNF production by monocytes activated with bacterial lipopolysaccharide (LPS). In words: Lipopolysaccharide-activated monocyte TNF production assay. The assay is classed as cell-based, human. As to conditions: Homo sapiens, Monocyte, TNF in supernatant by ELISA, read-out: IC50 values in the monocyte assay (LPS induced TNF release). How it is done:
Lipopolysaccharide-activated Monocyte TNF Production Assay
Test compounds were evaluated in vitro for the ability to inhibit the production of TNF by monocytes activated with bacterial lipopolysaccharide (LPS). Fresh residual source leukocytes (a byproduct of plateletpheresis) were obtained from a local blood bank, and peripheral blood mononuclear cells (PBMCS) were isolated by density gradient centrifugation on Ficol-Paque Plus (Pharmacia). PBMCs were suspended at 2×10^6/ml in DMEM supplemented to contain 2% FCS, 10 mM, 0.3 mg/ml […], 100 U/ml penicillin G and […] streptomycin sulfate (complete media). Cells were plated into Falcon flat bottom, 96 well culture plates (200 μl/well) and cultured overnight at 37° C. and 6% CO2. Non-adherent cells were removed by washing with 200 μl/well of fresh medium. Wells containing adherent cells (˜70% monocytes) were replenished with 100 μl of fresh medium.
Preparation of Test Compound Stock Solutions
Test compounds were dissolved in […]. Compound stock solutions were prepared to an initial concentration of […]. Stocks were diluted initially to 20-200 μM in complete media. Nine two-fold serial dilutions of each compound were then prepared in complete medium.
Treatment of Cells with Test Compounds and Activation of TNF Production with Lipopolysaccharide
One hundred microliters of each test compound dilution were added to microtiter wells containing adherent monocytes and 100 μl complete medium. Monocytes were cultured with test compounds for 60 min at which time 25 μl of complete medium containing 30 ng/ml lipopolysaccharide from E. coli K532 were added to each well. Cells were cultured an additional 4 hrs. Culture supernatants were then removed and TNF presence in the supernatants was quantified using an ELISA.
Flat bottom, 96 well Corning High Binding ELISA plates were coated overnight (4° C.) with 150 μL/well of 3 μg/ml murine anti-human TNF-α MAb (R&D Systems #MAB210). Wells were then blocked for 1 hr at room temperature with 200 μL/well of CaCl2-free ELISA buffer supplemented to contain 20 mg/ml BSA (standard ELISA buffer: […], 150 mM NaCl, 2 mM CaCl2, 0.15 mM thimerosal, pH 7.4). Plates were washed and replenished with 100 μl of test supernatants (diluted 1:3) or standards. Standards consisted of eleven 1.5-fold serial dilutions from a stock of 1 ng/ml recombinant human TNF (R&D Systems). Plates were incubated at room temperature for 1 hr on orbital shaker (300 rpm), washed and replenished with 100 μl/well of 0.5 μg/ml goat anti-human TNF-α (R&D systems #AB-210-NA) biotinylated at a 4:1 ratio. Plates were incubated for 40 min, washed and replenished with 100 μl/well of alkaline phosphatase-conjugated streptavidin (Jackson ImmunoResearch #016-050-084) at 0.02 μg/ml. Plates were incubated 30 min, washed and replenished with 200 μl/well of 1 mg/ml of p-nitrophenyl phosphate. After 30 min, plates were read at 405 nm on a Vmax plate reader.
Standard curve data were fit to a second order polynomial and unknown TNF-α concentrations determined from their OD by solving this equation for concentration. TNF concentrations were then plotted vs. test compound concentration using a second order polynomial. This equation was then used to calculate the concentration of test compounds causing a 50% reduction in TNF production.
In general terms: ELISA stands for enzyme-linked immunosorbent assay.
By IC50 is commonly meant the concentration that gives 50% inhibition. As to `Fc1ccc(-c2cnc(Cc3c(Cl)cccc3Cl)nc2-c2ccncc2)cc1` [Example 1-8, 2-(2,6-Dichlorobenzyl)-5-(4-fluorophenyl)-4-(4-pyridyl)-pyrimidine], the IC50 is ≤ 20 µM.

As to `Fc1ccc(-c2cnc(CSc3ccccc3)nc2-c2ccncc2)cc1` [Example 1-10, 5-(4-Fluorophenyl)-2-phenylthiomethyl-4-(4-pyridinyl)-pyrimidine], the half-maximal inhibitory concentration (IC50) was ≤ 20 µM.

For `Fc1ccc(-c2cnc(-c3cccs3)nc2-c2ccncc2)cc1` [Example 1-18, 5-(4-Fluorophenyl)-4-(4-pyridyl)-2-(2-thienyl)-pyrimidine], the IC50 was ≤ 20 µM.

With `CCN(CC)CCNc1ncc(-c2ccc(F)cc2)c(-c2ccncc2)n1` [Example 1-22, 2-(2-Diethylaminoethylamino)-5-(4-fluorophenyl)-4-(4-pyridyl)-pyrimidine], the IC50 is ≤ 20 µM.

In the case of `Fc1ccc(-c2cnc(Nc3c(Cl)cccc3Cl)nc2-c2ccncc2)cc1` [Example 1-24, 2-(2,6-Dichlorophenylamino)-5-(4-fluorophenyl)-4-(4-pyridyl)-pyrimidine], the half-maximal inhibitory concentration (IC50) is ≤ 20 µM.

Take `Cc1cccc(C)c1Nc1ncc(-c2ccc(F)cc2)c(-c2ccncc2)n1` [Example 1-25, 2-(2,6-Dimethylphenylamino)-5-(4-fluorophenyl)-4-(4-pyridyl)-pyrimidine]: the IC50 is ≤ 20 µM.

Consider `Fc1ccc(Nc2ncc(-c3ccc(F)cc3)c(-c3ccncc3)n2)cc1` [Example 1-27, 5-(4-Fluorophenyl)-2-(4-fluorophenylamino)-4-(4-pyridyl)-pyrimidine], for which the IC50 was ≤ 20 µM.

With `Fc1ccc(-c2cnc(N3CCOCC3)nc2-c2ccncc2)cc1` [Example 1-33, 5-(4-Fluorophenyl)-2-morpholino-4-(4-pyridyl)-pyrimidine], the IC50 was ≤ 20 µM.

As to `NCCCCNc1ncc(-c2ccc(F)cc2)c(-c2ccncc2)n1` [Example 2-3, 2-(4-Aminobutylamino)-5-(4-fluorophenyl)-4-(4-pyridyl)-pyrimidine hydrochloride], the half-inhibitory concentration (IC50) is ≤ 20 µM.

`Fc1ccc(-c2cnc(NCCc3ccc(Br)cc3)nc2-c2ccncc2)cc1` [Example 2-10, 2-(2-(4-Bromophenyl)-ethylamino)-5-(4-fluorophenyl)-4-(4-pyridyl)-pyrimidine]: the IC50 is ≤ 20 µM.

Consider `Nc1ccc(CCNc2ncc(-c3ccc(F)cc3)c(-c3ccncc3)n2)cc1` [Example 2-12, 2-(2-(4-Aminophenyl)-ethylamino)-5-(4-fluorophenyl)-4-(4-pyridyl)-pyrimidine], for which the IC50 is ≤ 20 µM.

Turning to `COc1ccccc1CCNc1ncc(-c2ccc(F)cc2)c(-c2ccncc2)n1` [Example 2-15, 5-(4-Fluorophenyl)-2-(2-(2-methoxyphenyl)-ethylamino)-4-(4-pyridyl)-pyrimidine], the IC50 is ≤ 20 µM.

On to `COc1cccc(CCNc2ncc(-c3ccc(F)cc3)c(-c3ccncc3)n2)c1` [Example 2-18, 5-(4-Fluorophenyl)-2-(2-(3-methoxyphenyl)-ethylamino)-4-(4-pyridyl)-pyrimidine], for which the IC50 was ≤ 20 µM.

With `CC(CCc1ccccc1)Nc1ncc(-c2ccc(F)cc2)c(-c2ccncc2)n1` (centres unmarked) [Example 2-23, 5-(4-Fluorophenyl)-2-((1-methyl-3-phenylpropyl)-amino)-4-(4-pyridyl)-pyrimidine], the IC50 was ≤ 20 µM.

Regarding `Fc1ccc(-c2cnc(NCCCCc3ccccc3)nc2-c2ccncc2)cc1` [Example 2-25, 5-(4-Fluorophenyl)-2-((4-phenyl-n-butyl)-amino)-4-(4-pyridyl)-pyrimidine], the IC50 was ≤ 20 µM.

`Fc1ccc(-c2cnc(NCCN3CCOCC3)nc2-c2ccncc2)cc1` [Example 2-30, 5-(4-Fluorophenyl)-2-(2-morpholinoethylamino)-4-(4-pyridyl)-pyrimidine]: the IC50 was ≤ 20 µM.

Turning to `Fc1ccc(-c2cnc(NCCN3CCCCC3)nc2-c2ccncc2)cc1` [Example 2-31, 5-(4-Fluorophenyl)-2-(2-piperidinoethylamino)-4-(4-pyridyl)-pyrimidine], the IC50 is ≤ 20 µM.

For `Fc1ccc(-c2cnc(NCCN3CCCC3)nc2-c2ccncc2)cc1` [Example 2-32, 5-(4-Fluorophenyl)-4-(4-pyridyl)-2-(2-pyrrolidinoethylamino)-pyrimidine], the IC50 was ≤ 20 µM.

With `O=C1CCCN1CCCNc1ncc(-c2ccc(F)cc2)c(-c2ccncc2)n1` [Example 2-34, 5-(4-Fluorophenyl)-2-(3-(2-pyrrolidinon-1-yl)-propylamino)-4-(4-pyridyl)-pyrimidine], the IC50 was ≤ 20 µM.

Turning to `O=c1[nH]c(Cc2c(Cl)cccc2Cl)nc(-c2ccncc2)c1-c1ccc(F)cc1` [Example 4-3, 2-(2,6-Dichlorobenzyl)-5-(4-fluorophenyl)-6-(4-pyridyl)-4(3H)-pyrimidinone], the IC50 is ≤ 20 µM.

For `O=c1[nH]c(SCCOc2ccccc2)nc(-c2ccncc2)c1-c1ccc(F)cc1` [Example 5-3, 5-(4-Fluorophenyl)-2-(2-phenoxyethyl)thio-6-(4-pyridyl)-4(3H)-pyrimidinone], the IC50 was ≤ 20 µM.

In the case of `O=c1[nH]c(SCCNc2ccccc2)nc(-c2ccncc2)c1-c1ccc(F)cc1` [Example 5-4, 5-(4-Fluorophenyl)-2-(2-phenylaminoethyl)thio-6-(4-pyridyl)-4(3H)-pyrimidinone], the IC50 is ≤ 20 µM.

`Fc1ccc(-c2cnc(-c3ccncc3)nc2-c2ccncc2)cc1` [Example 11, 5-(4-Fluorophenyl)-2,4-bis-(4-pyridyl)-pyrimidine]: the IC50 is ≤ 20 µM.

Still in this assay, the particulars now being: TNF in supernatant by ELISA, listed as 5-(4-Fluorophenyl)-2-(N-methyl-N-(2-phenylethyl)amino)-4-(4-pyridyl)-pyrimidine, read-out: IC50 values in the monocyte assay (LPS induced TNF release).
Consider `CN(CCc1ccccc1)c1ncc(-c2ccc(F)cc2)c(-c2ccncc2)n1` [Example 2-21, 5-(4-Fluorophenyl)-2-(methyl-(2-phenylethyl)-amino)-4-(4-pyridyl)-pyrimidine], for which the half-maximal inhibitory concentration (IC50) was ≤ 5 µM.

Staying with this assay, now noted: TNF in supernatant by ELISA, read-out: IC50 values in the monocyte assay (LPS induced TNF release).
On to “5-(4-Fluorophenyl)-2-((3-imidazolylpropyl)-amino)-4-(4-pyridyl)-pyrimidine [Example 2-24]”, for which the IC50 was ≤ 5 µM.

Turning to `Fc1ccc(CCNc2ncc(-c3ccc(F)cc3)c(-c3ccncc3)n2)cc1` [Example 2-8, 5-(4-Fluorophenyl)-2-(2-(4-fluorophenyl)-ethylamino)-4-(4-pyridyl)-pyrimidine], the concentration for half-maximal inhibition (IC50) was ≤ 5 µM.

Turning to `Oc1ccc(CCNc2ncc(-c3ccc(F)cc3)c(-c3ccncc3)n2)cc1` [Example 2-11, 5-(4-Fluorophenyl)-2-(2-(4-hydroxyphenyl)-ethylamino)-4-(4-pyridyl)-pyrimidine], the IC50 is ≤ 5 µM.

Take `Fc1ccc(-c2cnc(NCCc3ccccc3F)nc2-c2ccncc2)cc1` [Example 2-13, 5-(4-Fluorophenyl)-2-(2-(2-fluorophenyl)-ethylamino)-4-(4-pyridyl)-pyrimidine]: the IC50 was ≤ 5 µM.

Take `OC(CNc1ncc(-c2ccc(F)cc2)c(-c2ccncc2)n1)c1ccccc1` (centres unmarked) [Example 2-20, 5-(4-Fluorophenyl)-2-((2-hydroxy-2-phenyl)-ethylamino)-4-(4-pyridyl)-pyrimidine]: the IC50 was ≤ 5 µM.

As for `Fc1ccc(-c2cnc(NCCCc3ccccc3)nc2-c2ccncc2)cc1` [Example 2-22, 5-(4-Fluorophenyl)-2-((3-phenylpropyl)-amino)-4-(4-pyridyl)-pyrimidine], the IC50 was ≤ 5 µM.

Take `O=c1[nH]c(NCCCc2ccccc2)nc(-c2ccncc2)c1-c1ccc(F)cc1` [Example 6-2, 5-(4-Fluorophenyl)-2-((3-phenylpropyl)-amino)-6-(4-pyridyl)-4(3H)-pyrimidinone]: the IC50 is ≤ 5 µM.

With `CC(CCc1ccccc1)Nc1nc(-c2ccncc2)c(-c2ccc(F)cc2)c(=O)[nH]1` (centres unmarked) [Example 6-3, 5-(4-Fluorophenyl)-2-((1-methyl-3-phenylpropyl)-amino)-6-(4-pyridyl)-4(3H)-pyrimidinone], the IC50 was ≤ 5 µM.
